In US12679820B2, “Cocrystals, pharmaceutical compositions thereof, and methods of treatment involving same” (Servier Pharmaceuticals LLC, priority 2017, dated 2026):
Like-named read-outs stand apart in the source and are kept apart here.

Legend:
[1] = Pharmacokinetics of Compound 1 solid forms in plasma following single PO administration (IV bolus reference) in male Sprague Dawley rats; type: in vivo; conditions: for AUC(0-inf) / bioavailability: male, rat; for AUC(0-inf) / bioavailability / AUCinf: plasma; for bioavailability: read-out: Absolute % F; for AUCinf: oral gavage 10 mg/kg (as free Compound 1); for AUCinf / Absolute % F: 10 mg/kg; for Absolute % F: oral gavage 10 mg/kg
Description: Study Design. Twelve (12) male Sprague Dawley rats (purchased from SLAC Laboratory Animal Co. LTD were randomized into four groups (3 animals per group). The animals were fasted overnight, the forms of Compound 1 shown in Table 24 were administered by oral gavage, and the animals were fed 4 hours post-dose. Each form of Compound 1 was administered as a suspension in water containing 0.5% microcrystalline cellulose and 0.1% Tween 80. The Dose Levels and Dose Concentrations shown in Table 24 are based on the corresponding amount of free Compound 1.
Blood Collection. Blood was serially collected from each animal 0.083 hr, 0.25 hr, 0.5 hr, 1 hr, 2 hr, 4 hr, 8 hr, 24 hr, 48 hr, and 72 hrs post-dose. For each collection, the animal was restrained manually, and approximately 150 μL of blood sample was collected via the tail vein into K2EDTA tubes. The blood samples were put on ice and centrifuged at 2000 g for 5 min to obtain plasma. Plasma samples were stored at approximately −70° C. until analysis.
To enable the calculation of oral bioavailability, Compound 1 was dissolved in a vehicle containing 10% N-Methyl-2-pyrrolidone (NMP), 10% Solutol HS 15, and 80% saline and administered at 1 mg/kg as intravenous (IV) bolus dose to a separate group of male Sprague-Dawley rats, and blood samples were collected at similar time points to those shown above. Further, plasma samples were obtained from the collected blood samples and stored at approximately −70° C. until analysis.
Further, the amorphous solid dispersion of Compound 1, as described in Example 23, was suspended in an aqueous vehicle containing 0.5% methyl cellulose (MC) and 0.2% Tween80 at 0.2 mg/mL concentration and dosed at 1 mg/kg as a single oral dose to a separate group of male Sprague-Dawley rats after an overnight fasting. Blood samples were collected at similar time points to those shown above. Further, plasma was harvested and stored at approximately −70° C. until analysis.
Sample Preparation and Analysis. The concentration of Compound 1 in the plasma samples was determined by LC-MS/MS analysis.
A 20 μL aliquot of each sample was diluted with 200 μL of acetonitrile containing dexamethasone as an internal standard (40 ng/mL). The resulting mixture was vortexed for 2 min and centrifuged at 5800 rpm for 10 min. A 2 μL sample was injected into LC-MS/MS.
Results. Historical data for IV administration of Compound 1 and administration of Compound 1 as a spray dried dispersion are also provided in Table 26. The absolute bioavailability of each form of Compound 1 was determined by dividing the AUCinf of the form in question by the AUCinf obtained by IV administration of Compound 1 and correcting for differences in dose. The measured absolute bioavailability of the citrate and maleate cocrystals, as reported in Table 26, was higher than the measured bioavailability of the other forms of Compound 1.

[2] = Hygroscopicity by Dynamic Vapor Sorption (DVS) analysis; type: physicochemical; conditions: for water uptake at 80% relative humidity / hygroscopicity: DVS at 25° C.; for water uptake at 80% relative humidity: range 0-95% relative humidity; for form change after DVS analysis (XRPD of the remaining material): XRPD after DVS at 25° C., 0-95% relative humidity
Description: Dynamic Vapor Sorption (DVS) Analysis. DVS was measured via a SMS (Surface Measurement Systems) DVS Intrinsic. The relative humidity at 25° C. were calibrated against deliquescence point of LiCl, Mg(NO3)2 and KCl. [table] The hygroscopicity of the cocrystal was determined by DVS analysis at 25° C., over a range of 0-95% relative humidity. […]

mutant IDH2 = conditions: biochemical and cellular assays; cited from earlier work
mutant IDH1 = conditions: biochemical and cellular assays; cited from earlier work
[3] = listed as Citric Acid Cocrystal Type A
[4] = male Sprague Dawley rats, fasted
[5] = male Sprague Dawley rats, vs IV AUCinf, dose-corrected
[6] = listed as Maleic Acid Cocrystal Type A

Structure (SMILES): C[C@@H](Nc1nc(N[C@H](C)C(F)(F)F)nc(-c2cccc(Cl)n2)n1)C(F)(F)F [Citrate Cocrystal Type A]
- AUC(0-inf) ([1]; Sprague Dawley, po, 11.7 mg/kg, oral gavage 11.7 mg/kg (as free Compound 1), male Sprague Dawley rats, fasted): 58200 ng·h/mL
- bioavailability ([1]; Sprague Dawley, po, 11.7 mg/kg, oral gavage 11.7 mg/kg, male Sprague Dawley rats, vs IV AUCinf, dose-corrected): 104%
- bioavailability (in words) ([1]; summary statement referring to the Examples): favorable bioavailability
- water uptake at 80% relative humidity [2, 3]: 0.5%
- hygroscopicity [2, 3]: slightly hygroscopic
- hygroscopicity ([2]; listed as citric acid cocrystal type A): low hygroscopicity
- form change after DVS analysis (XRPD of the remaining material) [2]: no form change had occurred

Structure (SMILES): C[C@@H](Nc1nc(N[C@H](C)C(F)(F)F)nc(-c2cccc(Cl)n2)n1)C(F)(F)F [Maleate Cocrystal Type A]
- AUCinf [1, 4]: 38625 ng·h/mL
- Absolute % F [1, 5]: 80.4%
- water uptake at 80% relative humidity [2, 6]: 2.0%
- hygroscopicity [2, 6]: slightly hygroscopic
- form change after DVS analysis (XRPD of the remaining material) [2]: no form change had occurred

Structure (SMILES): C[C@@H](Nc1nc(N[C@H](C)C(F)(F)F)nc(-c2cccc(Cl)n2)n1)C(F)(F)F [Free Form C]
- AUCinf [1, 4]: 10846 ng·h/mL
- Absolute % F [1, 5]: 22.6%

Structure (SMILES): C[C@@H](Nc1nc(N[C@H](C)C(F)(F)F)nc(-c2cccc(Cl)n2)n1)C(F)(F)F [Free Form A]
- AUCinf [1, 4]: 30698 ng·h/mL
- Absolute % F [1, 5]: 63.9%

Structure (SMILES): C[C@@H](Nc1nc(N[C@H](C)C(F)(F)F)nc(-c2cccc(Cl)n2)n1)C(F)(F)F [Compound 1, 6-(6-chloropyridin-2-yl)-N^2,N^4-bis((R)-1,1,1-trifluoropropan-2-yl)-1,3,5-triazine-2,4-diamine]
- AUC(0-inf) ([1]; Sprague-Dawley, iv, 1 mg/kg, IV bolus 1 mg/kg, male Sprague-Dawley rats, historical data): 4800 ng·h/mL
- bioavailability ([1]; Sprague-Dawley, iv, 1 mg/kg, IV bolus 1 mg/kg, male Sprague-Dawley rats, historical data (reference)): 100%
- inhibitor of mutant IDH2 protein (mutant IDH2): inhibitor
- inhibitor of mutant IDH1 protein (mutant IDH1): inhibitor
